# From patent US20230212164A1, “ANNULATED 2-AMINO-3-CYANO THIOPHENES AND DERIVATIVES FOR THE TREATMENT OF CANCER” (BOEHRINGER INGELHEIM INTERNATIONAL GMBH, priority 2020, published 2023)
# Legend:
# [1] = molecular target: T1, protein-protein interaction between SOS1 and KRAS G12C (Homo sapiens, UniProt P01116, C118S/C51S/C80L/G12C); experiment: KRAS::SOS1 AlphaScreen binding assay
# T1 construct: His6 (N)
# Procedure: KRAS::SOS1 AlphaScreen Binding Assay
# Assay buffer: • 1×PBS • 0.1% BSA • 0.05% Tween 20
# AlphaLISA Glutathione Acceptor Beads and AlphaScreen Streptavidin Donor Beads are mixed in assay buffer at a concentration of 10 μg/mL (final assay concentration) each prior to use and kept at room temperature.
# Compounds are diluted to a final start concentration of 100 μM and are tested in duplicate. […] For compound a start concentration of 100 μM, 150 nL of compound solution is transferred per well in 11 concentrations in duplicate with serial 1:5 dilutions.
# The assay is run using a fully automated robotic system in a darkened room below 100 Lux. 10 μL of KRAS::SOS1 GDP mix is added into columns 1-24 to the 150 nL of compound solution (final dilution in the assay 1:100, final DMSO concentration 1%).
# After 30 minutes incubation time 5 μL of bead mix is added into columns 1-23. Plates are kept at room temperature in a darkened incubator. After further 60 minutes incubation, the signal is measured using a PerkinElmer Envision HTS Multilabel Reader using the AlphaScreen specifications from PerkinElmer. Each plate contains the following controls: • diluted DMSO+KRAS::SOS1 GDP mix+bead mix • diluted DMSO+KRAS::SOS1 GDP mix
# IC50 values are calculated and analyzed using a 4 parametric logistic model.
# [2] = test system: pERK (Thr202/Tyr204) in NCI-H358_Cas9_SOS2 (SOS2 knocked); experiment: ERK phosphorylation assay 2 (AlphaLISA SureFire Ultra p-ERK1/2); details: read-out: IC50 H358 pERK, ERK phosphorylation assay 2 (values marked with *)
# Procedure: ERK Phosphorylation Assay
# Low IC50 values in this assay setting are indicative of high potency of the compounds according to the invention.
# GFP positive cells were collected and further expanded. These GFP-positive cell pools were single-cell diluted and SOS2 knock-out clones were identified via Western-blot and genomic DNA sequencing analysis.
# Materials Used for the Assay:
# (§1) AlphaLISA SureFire Ultra p-ERK1/2 (Thr202/Tyr204) Assay Kit (ALSU-PERK-A500)
# Cells are seeded at 40,000 cells per well in /60 μL of RPMI with 10% FBS, non-essential amino acids, pyruvate and glutamax in Greiner TC 384 plates. The cells are incubated for 1 h at room temperature and then incubated overnight in an incubator at 37° C. and 5% CO2 in a humidified atmosphere. 60 nL compound solution (10 mM DMSO stock solution) is then added using a Labcyte Echo 550 device. After a 1 h incubation in the aforementioned incubator the medium is removed after centrifugation and the cells lysed by addition of 20 μL of 1.6-fold lysis buffer from the AlphaLISA SureFire Ultra pERK1/2 (Thr202/Tyr204) Assay Kit with added protease inhibitors, 100 nM trametinib+100 nM staurosporine. After 20 minutes of incubation at room temperature with shaking, 6 μL of each lysate sample is transferred to a 384-well Proxiplate and analyzed for pERK (Thr202/Tyr204) with the AlphaLISA SureFire Ultra pERK1/2 (Thr202/Tyr204) Assay Kit. 3 μL Acceptor Mix and 3 μL Donor Mix are added under subdued light and incubated for 2 h at room temperature in the dark, before the signal is measured on a PerkinElmer Envision HTS Multilabel Reader. The raw data were imported into and analyzed with the Boehringer Ingelheim proprietary software MegaLab (curve fitting based on the program PRISM, GraphPad Inc.).
# [3] = molecular target: KRASG12-dependent Ba/F3 cells (Homo sapiens, UniProt P01116, G12C, cells depend on it); experiment: Ba/F3 cell model proliferation assay (AlamarBlue, 72 h); format: cell-based; details: Ba/F3 cells transduced with KRASG12C, read-out: IC50 Ba/F3 KRASG12C
# Sequence of KRASG12-dependent Ba/F3 cells (P01116 whole entry G12C): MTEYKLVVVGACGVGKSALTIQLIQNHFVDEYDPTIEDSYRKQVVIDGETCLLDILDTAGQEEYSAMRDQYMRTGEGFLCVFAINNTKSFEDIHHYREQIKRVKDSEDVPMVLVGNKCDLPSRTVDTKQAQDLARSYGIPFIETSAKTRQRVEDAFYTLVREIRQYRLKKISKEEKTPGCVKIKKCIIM
# Procedure: Ba/F3 Cell Model Generation and Proliferation Assay
# Plasmids containing KRASG12 mutants were obtained from GeneScript. To generate KRASG12-dependent Ba/F3 models, Ba/F3 cells were transduced with retroviruses containing vectors that harbor KRASG12 isoforms. Platinum-E cells (Cell Biolabs) were used for retrovirus packaging. Retrovirus was added to Ba/F3 cells. To ensure infection, 4 μg/mL polybrene was added and cells were spinfected. […] Cells with an infection efficiency of 10% to 20% were further cultivated and puromycin selection with 1 μg/mL was initiated. As a control, parental Ba/F3 cells were used to show selection status. Selection was considered successful when parental Ba/F3 cells cultures died. To evaluate the transforming potential of KRASG12 mutations, the growth medium was no longer supplemented with IL-3. Ba/F3 cells harboring the empty vector were used as a control. Approximately ten days before conducting the experiments, puromycin was left out.
# All treatments were performed in technical duplicates. The assay is run using a fully automated robotic system. Treated cells were incubated for 72 h at 37° C. with 5% CO2.
# AlamarBlue™ (ThermoFisher), a viability stain, was added and fluorescence measured in the PerkinElmer Envision HTS Multilabel Reader.
# [4] = test system: pERK (Thr202/Tyr204) in NCI-H358 (KRAS G12C mutation); experiment: ERK phosphorylation assay 1 (AlphaLISA SureFire Ultra p-ERK1/2); details: Homo sapiens, NCI-H358, read-out: IC50 H358 pERK
# Procedure: ERK Phosphorylation Assay
# Materials Used for the Assay:
# as §1
# The cells are incubated for 1 h at room temperature and then incubated overnight in an incubator at 37° C. and 5% CO2 in a humidified atmosphere. 60 nL compound solution (10 mM DMSO stock solution) is then added using a Labcyte Echo 550 device. […] After 20 minutes of incubation at room temperature with shaking, 6 μL of each lysate sample is transferred to a 384-well Proxiplate and analyzed for pERK (Thr202/Tyr204) with the AlphaLISA SureFire Ultra pERK1/2 (Thr202/Tyr204) Assay Kit. 3 μL Acceptor Mix and 3 μL Donor Mix are added under subdued light and incubated for 2 h at room temperature in the dark, before the signal is measured on a PerkinElmer Envision HTS Multilabel Reader. The raw data were imported into and analyzed with the Boehringer Ingelheim proprietary software MegaLab (curve fitting based on the program PRISM, GraphPad Inc.).
# T1 sequence (P01116 1-169 isoform P01116-2 G12C/C51S/C80L/C118S): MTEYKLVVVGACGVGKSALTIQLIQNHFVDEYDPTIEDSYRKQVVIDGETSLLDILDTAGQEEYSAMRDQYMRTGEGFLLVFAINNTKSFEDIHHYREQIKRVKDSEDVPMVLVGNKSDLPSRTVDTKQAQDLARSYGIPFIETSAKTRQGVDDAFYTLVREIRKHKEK
Structure (SMILES),IC50 ([1]; Table 36),IC50 [2],IC50 ([1]; Table 38),GI50 [3],IC50 [4],IC50 ([1]; Table 37)
C=CC(=O)N1CCN(c2cc(-c3noc([C@@]4(C)CCCc5sc(N)c(C#N)c54)n3)nc(O[C@H]3C4CC5CN(C)[C@@H]3[C@H]5C4)n2)CC1 (stereo partly shown) [Ia-51],19 nM,98.5 nM,–,–,–,–
CC#CC(=O)N1CCN(c2cc(-c3noc([C@@]4(C)CCCc5sc(N)c(C#N)c54)n3)nc(O[C@@H](C)[C@@H]3CCCN3C)n2)CC12CC2 [Ia-166],–,4.2 nM,3 nM,13.4 nM,–,–
C=CC(=O)N1CCC(Oc2cc(-c3noc(C4(C)CCCc5sc(N)c(C#N)c54)n3)nc(N3CCN(C)C[C@@H]3C)c2)CC1 (stereo partly shown) [Ia-114],11 nM,–,–,12.6 nM,4.1 nM,–
C=CC(=O)N1CCN(c2cc(-c3noc([C@@]4(C)CCCc5sc(N)c(C#N)c54)n3)nc(OC3CCCC34CCCN4C)n2)CC1 (stereo partly shown) [Ia-49],4 nM,10.4 nM,–,26 nM,–,–
C=CC(=O)N1CCN(c2cc(-c3noc([C@@]4(C)CCCc5sc(N)c(C#N)c54)n3)nc(O[C@H]3CCN(C)[C@H]3C)n2)CC1 [Ia-68],27 nM,269 nM,–,–,–,–
COC/C=C/C(=O)N1CCC(Oc2cc(O[C@@H](C)[C@@H]3CCCN3C)nc(-c3noc([C@@]4(C)CCCc5sc(N)c(C#N)c54)n3)c2)CC1 [Ia-159],–,12.4 nM,–,16.2 nM,–,5 nM
C=CC(=O)N1CCN(c2cc(-c3noc([C@@]4(C)CCc5sc(N)c(C#N)c54)n3)nc(N[C@@H](C)[C@@H]3CCCN3C)n2)CC1 [Ia-132],515 nM,1350 nM,–,1310 nM,–,–
C=CC(=O)N1CCN(c2cc(-c3noc(C4(C)CCCc5sc(N)c(C#N)c54)n3)nc(N3CCC(N4CC[C@@H](F)C4)CC3)c2)CC1 (stereo partly shown) [Ia-39],10 nM,–,–,87.6 nM,6.2 nM,–
C=CC(=O)N1C2CCC1CN(c1cc(-c3noc([C@@]4(C)CCCc5sc(N)c(C#N)c54)n3)nc(O[C@@H](C)[C@@H]3CCCN3C)n1)C2 [Ia-59],3 nM,5.5 nM,–,32.5 nM,–,–
C=CC(=O)N1CC[C@H](Oc2cc(O[C@@H](C)[C@@H]3CCCN3C)nc(-c3noc([C@@]4(C)CCCc5sc(N)c(C#N)c54)n3)c2)C1 [Ia-82],2 nM,7.7 nM,–,17.3 nM,–,–
C=CC(=O)N1CC[C@H](C)N(c2cc(-c3noc([C@@]4(C)CCCc5sc(N)c(C#N)c54)n3)nc(O[C@@H](C)[C@@H]3CCCN3C)n2)CC1 [Ia-55],2 nM,9.8 nM,–,24.2 nM,–,–
C=CC(=O)N1CCC(Oc2cc(-c3noc([C@]4(C)CCCc5sc(N)c(C#N)c54)n3)nc(N3CCN(C)C[C@@H]3C)c2)CC1 [Ia-80],507 nM,1150 nM,–,559 nM,–,–
COC/C=C/C(=O)N1CCN(c2cc(-c3noc([C@@]4(C)CCCc5sc(N)c(C#N)c54)n3)nc(O[C@@H](C)[C@@H]3CCCN3C)n2)CC12CC2 [Ia-160],–,25.3 nM,–,116 nM,–,11 nM
C=CC(=O)N1CCN(c2cc(-c3noc([C@@]4(C)CCCc5sc(N)c(C#N)c54)n3)nc(OC3CC4(CCN(C)C4)C3)n2)CC1 (stereo partly shown) [Ia-69],23 nM,298 nM,–,–,–,–
C=CC(=O)N1CCN(c2cc(-c3noc([C@@]4(C)CCCc5sc(N)c(C#N)c54)n3)nc(N3CCC4(CC(O)C4)C3)n2)CC1 (stereo partly shown) [Ia-76],391 nM,1000 nM,–,–,–,–
C=CC(=O)N1CCN(c2cc(-c3noc([C@@]4(C)CCCc5sc(N)c(C#N)c54)n3)nc(N3CCCN(CCOC)C[C@@H]3C)n2)CC1 [Ia-129],6 nM,–,–,22.5 nM,6.4 nM,–
C=CC(=O)N1CCN(c2cc(O[C@@H]3CCN(C)C3)nc(-c3noc([C@@]4(C)CCCc5sc(N)c(C#N)c54)n3)c2)CC1 [Ia-127],60 nM,–,–,1430 nM,22.1 nM,–
C=CC(=O)N1CCN(c2cc(-c3noc(C4(C)CCCc5sc(N)c(C#N)c54)n3)nc(N3CCCN(CCCOC)C[C@@H]3C)c2)CC1 (stereo partly shown) [Ia-19],5 nM,–,–,25.6 nM,6.2 nM,–
C=CC(=O)N1CCCC(Oc2cc(-c3noc([C@@]4(C)CCCc5sc(N)c(C#N)c54)n3)nc(N3CCCN(C)C[C@@H]3C)c2)C1 (stereo partly shown) [Ia-6],311 nM,206 nM,–,–,–,–

Structure (SMILES),IC50 ([1]; Table 36),IC50 [2],IC50 ([1]; Table 38),GI50 [3],IC50 [4],IC50 ([1]; Table 37)
C=CC(=O)N1CCN(c2cc(-c3noc([C@@]4(C)CCCc5sc(N)c(C#N)c54)n3)nc(N3CCCN(CCOC)C[C@@H]3C)c2)CC1 [Ia-130],7 nM,–,–,37.4 nM,16.6 nM,–
C=CC(=O)N1CCN(c2cc(-c3noc(C4(C)CCCc5sc(N)c(C#N)c54)n3)nc(N3CCN(C)C[C@@H]3CC)c2)CC1 (stereo partly shown) [Ia-15],53 nM,–,–,219 nM,7.3 nM,–
C=CC(=O)N1CCN(c2cc(-c3noc([C@@]4(C)CCCc5sc(N)c(C#N)c54)n3)nc(OC(C)CN3CCN(C)CC3)n2)CC1 (stereo partly shown) [Ia-66],9 nM,124 nM,–,–,–,–
C=CC(=O)N1CCN(c2cc(-c3noc([C@@]4(C)CCCc5sc(N)c(C#N)c54)n3)nc(OC3CC4CCC(C3)N4C)n2)CC1 (stereo partly shown) [Ia-70],49 nM,413 nM,–,–,–,–
C=CC(=O)N1CCN(c2cc(-c3noc([C@@]4(C)CCCc5sc(N)c(C#N)c54)n3)nc(N3CCCN(C)C[C@@H]3C)n2)CC1 [Ia-131],5 nM,–,–,22.4 nM,6.2 nM,–
C=CC(=O)N1CCN(c2cc(-c3noc([C@@]4(C)CCCc5sc(N)c(C#N)c54)n3)nc(N3CCN(C)CC3)c2)CC1 [Ia-116],31 nM,–,–,208 nM,6.4 nM,–
C=CC(=O)N1CCN(c2cc(-c3noc([C@@]4(C)CCCc5sc(N)c(C#N)c54)n3)nc(OC3(CN4CCCC4)CC3)n2)CC1 [Ia-67],15 nM,177 nM,–,–,–,–
C=CC(=O)N1CCN(c2cc(-c3noc([C@@]4(C)CCCc5sc(N)c(C#N)c54)n3)nc(N3CCOC[C@@H]3C)n2)CC1 [Ia-73],222 nM,138 nM,–,–,–,–
C=CC(=O)N1CCC2(CC1)CN(c1cc(-c3noc([C@@]4(C)CCCc5sc(N)c(C#N)c54)n3)nc(N3CCCN(CCCOC)C[C@@H]3C)n1)C2 [Ia-92],16 nM,–,–,178 nM,–,–
C=CC(=O)N1C[C@@H]2CN(c3cc(-c4noc([C@@]5(C)CCCc6sc(N)c(C#N)c65)n4)nc(N4CCCN(C)C[C@@H]4C)n3)[C@@H]2C1 [Ia-101],44 nM,–,–,933 nM,–,–
C=CC(=O)N(C)CCOc1cc(-c2noc([C@@]3(C)CCCc4sc(N)c(C#N)c43)n2)nc(N2CCCN(C)C[C@@H]2C)n1 [Ia-74],61 nM,–,–,254 nM,–,–
C=CC(=O)N1CCN(c2cc(-c3noc([C@@]4(C)CCCc5sc(N)c(C#N)c54)n3)nc(N3CC[C@H](O)[C@@H]3C)n2)CC1 [Ia-75],180 nM,553 nM,–,–,–,–
C=CC(=O)N1CCN(c2cc(-c3noc([C@@]4(C)CCCc5sc(N)c(C#N)c54)n3)nc(N3CCCN([C@H]4CCOC4)C[C@@H]3C)n2)CC1 [Ia-44],1.5 nM,–,–,2.5 nM,–,–
[2H]C([2H])([2H])N1CCN(c2cc(N3CCN(C(=O)C=C)CC3)cc(-c3noc(C4(C)CCCc5sc(N)c(C#N)c54)n3)n2)CC1 (stereo not shown) [Ia-128],64 nM,–,–,681 nM,13.3 nM,–
C=CC(=O)N1CCN(c2cc(-c3noc(C4(C)CCCc5sc(N)c(C#N)c54)n3)nc(N3CCC4(CCN(C)CC4)CC3)c2)CC1 (stereo not shown) [Ia-34],259 nM,–,–,4380 nM,282 nM,–
C=CC(=O)N1CCC2(CCN(c3cc(-c4noc([C@@]5(C)CCCc6sc(N)c(C#N)c65)n4)nc(N4CCCN(CCCOC)C[C@@H]4C)n3)CC2)C1 [Ia-98],59 nM,–,–,662 nM,–,–
C=CC(=O)N1CCN(c2cc(-c3noc([C@@]4(C)CCCc5sc(N)c(C#N)c54)n3)nc(O[C@@H](CC)[C@@H]3CCCN3C)n2)CC1 [Ia-138],2 nM,7.8 nM,–,–,–,–
C=CC(=O)N1CC(N2CCN(c3cc(-c4noc([C@@]5(C)CCCc6sc(N)c(C#N)c65)n4)nc(N4CCCN(CCCOC)C[C@@H]4C)n3)CC2)C1 [Ia-99],45 nM,–,–,1040 nM,–,–
